Test results as given in article PMC7029871, “Development and validation of a sensitive LC-MS/MS method for the quantitation of IMB-YH-4py5-2H, an antituberculosis candidate, and its application to the pharmacokinetic study” (PLoS ONE, 2020).
Like-named read-outs stand apart in the source and are kept apart here.

Key:
[1] = Distribution in plasma, lung homogenate, ELF and AMs after oral dose; assay type: in vivo, Sprague-Dawley rats; settings: rat, single oral dose 100 mg/kg; for concentration at 8 h / concentration at 30 h / concentration at 0.083 h / concentration at 0.5 h: both sexes, Sprague-Dawley
Method: After the oral administration of 100 mg/kg IMB-YH-4py5-2H, rats from each group (six rats per group and three rats per sex) were sacrificed at 5 min, 0.5 h, 8 h, and 30 h. Rat lungs were collected, rinsed with saline, wiped dry, accurately weighed and homogenized with ultrapure water. The homogenate was kept at −20°C until analysis.
As two representative infectious sites in lower respiratory tract infections, lung epithelial lining fluid (ELF) and alveolar macrophages (AMs) were investigated to determine the distribution of IMB-YH-4py5-2H. Freshly collected rat lungs were lavaged three times from the trachea with 5 mL of ice-cold phosphate buffer (pH 7.4). The lavage fluid was centrifuged at 4°C (650 × g, 5 min) to separate AMs from the ELF, immediately. The cell counts of the resuspended AMs were assessed by using the haemocytometer. The AMs were extracted with 1 mL of 0.1 M NaOH for analysis. To calculate the concentrations of IMB-YH-4py5-2H in ELF and AMs, reported data were employed. As reported, the total volume of ELF was estimated to be 393 μL/rat (~200 g body weight), and the intracellular volume of a single AM was 1166 μm^3 [25]. Based on the reported volume of a single AM, the raw data of IMB-YH-4py5-2H concentrations in AMs, expressed as ng/10^5 cells, were converted to the values with the unit of μg/mL (Eq 1), which was consistent with the unit of concentrations in plasma and ELF and easier for comparison.
CAM (μg/mL) is the concentration of IMB-YH-4py5-2H expressed as μg/mL, CAM (ng/10^5 cells) is the concentration with the unit of ng/10^5 cell, and V is the volume of a single AM (1166 μm^3).
The homogenate, ELF, and AM samples were processed as described in “Sample processing” and injected into the LC-MS/MS system for analysis.

Rat AMs NR8383 cells = assay: In vitro uptake study in alveolar macrophages; assay type: cell-based; settings: 24 h-exposure in 2 μg/mL
Method: Rat AMs NR8383 cells (American Type Culture Collection, Manassas, VA, USA) were grown overnight at 37°C with 5% CO2 in Ham’s F12K medium (Gibco, Grand island, NY, USA) containing 20% fetal bovine serum (FBS, Gibco, Thornton, Australia) in 24-well culture plates (4 × 10^5 cells/well in 1 mL culture medium). After 24 h-exposure to IMB-YH-4py5-2H (2 μg/mL), the culture medium and the subsequent three washes were pooled and processed further for the determination of the extracellular drug concentrations. The cells were then extracted with 0.1 M NaOH to collect the intracellular drug for the LC-MS/MS analysis. All experiments were done in triplicate. The intracellular/extracellular drug concentration ratios were then calculated.

[2] = Pharmacokinetic study in rats, single oral dose; assay type: in vivo, Sprague-Dawley rats; settings: for AUC(0-inf) / CL/F / MRT / Tmax / AUC(0-t) / Vd/F / half-life / Cmax: both sexes, Sprague-Dawley; for AUC(0-inf) / CL/F / MRT / Tmax / AUC(0-t) / Vd/F / half-life: plasma, rat; for AUC(0-t): read-out: AUC0-60; for Vd/F: read-out: Vz/F; for half-life: po; for Cmax: rat plasma
Method: A total of 18 adult SD rats were randomly divided into three dosing groups (half male and half female). IMB-YH-4py5-2H suspensions were freshly prepared in 1% (w/v) sodium carboxymethyl cellulose (CMC-Na). The rats were fasted with free access to water for 12 h prior to the oral administration of IMB-YH-4py5-2H at doses of 50, 100 or 200 mg/kg and fasted for another 2 h after administration. Blood samples of 0.2 mL were collected via the post-orbital venous plexus vein at 0.033, 0.083, 0.167, 0.333, 0.5, 0.75, 1, 1.5, 2, 4, 6, 8, 12, 24, 36, 48, and 60 h post dosing into a heparinized tube. Plasma samples, obtained by centrifuging blood at 2300 × g for 15 min at 4°C, were stored at −20°C until analysis.
The pharmacokinetic parameters of IMB-YH-4py5-2H were calculated by WinNonlin (Version 6.1, Pharsight Corp., Mountain View, CA, USA) using a non-compartmental model. Data were expressed as the mean ± standard deviation (S.D.).

[3] = tested on: intracellular M. tuberculosis H37Rv; assay: Intracellular activity assay in infected macrophages; assay type: cell-based, Mycobacterium tuberculosis; settings: for Log10CFU: three-day incubation, infected J744 macrophages, untreated 6.47±0.04
[4] = extracellular concentration of 2 μg/mL

Structure (SMILES): CN(C)C(=O)/C=C/C(=O)c1ccc(-c2ccncc2)cc1.Cl [IMB-YH-4py5-2H, (E)-N,N-dimethyl-4-oxo-4-(4-(pyridin-4-yl)phenyl)but-2-enamide hydrochloride]
- concentration at 8 h ([1]; alveolar macrophages (AMs), 8 h, converted with reported volume of a single AM (Eq 1), read-out: Concentration, AMs): 99700 ± 36700 ng/mL
- concentration at 30 h ([1]; alveolar macrophages (AMs), 30 h, converted with reported volume of a single AM (Eq 1), read-out: Concentration, AMs): 25300 ± 19400 ng/mL
- concentration at 0.083 h ([1]; lung epithelial lining fluid (ELF), 0.083 h, ELF volume taken as 393 μL/rat, read-out: Concentration, ELF): 639 ± 93 ng/mL
- concentration at 0.5 h ([1]; lung epithelial lining fluid (ELF), 0.5 h, ELF volume taken as 393 μL/rat, read-out: Concentration, ELF): 1800 ± 264 ng/mL
- concentration at 8 h ([1]; lung epithelial lining fluid (ELF), 8 h, ELF volume taken as 393 μL/rat, read-out: Concentration, ELF): 121 ± 32 ng/mL
- concentration at 30 h ([1]; lung epithelial lining fluid (ELF), 30 h, ELF volume taken as 393 μL/rat, read-out: Concentration, ELF): 50 ± 45 ng/mL
- concentration at 0.083 h ([1]; lung homogenate, 0.083 h, read-out: Concentration, lung homogenate): 4410 ± 607 ng/g
- concentration at 0.5 h ([1]; lung homogenate, 0.5 h, read-out: Concentration, lung homogenate): 10900 ± 1960 ng/g
- concentration at 8 h ([1]; lung homogenate, 8 h, read-out: Concentration, lung homogenate): 107 ± 22 ng/g
- concentration at 30 h ([1]; lung homogenate, 30 h, read-out: Concentration, lung homogenate): 11 ± 3 ng/g
- concentration at 0.083 h ([1]; plasma, 0.083 h, read-out: Concentration, Plasma): 917 ± 71 ng/mL
- concentration at 0.5 h ([1]; plasma, 0.5 h, read-out: Concentration, Plasma): 1060 ± 192 ng/mL
- concentration at 8 h ([1]; plasma, 8 h, read-out: Concentration, Plasma): 155 ± 29 ng/mL
- concentration at 30 h ([1]; plasma, 30 h, read-out: Concentration, Plasma): 39 ± 12 ng/mL
- Concentration, AMs ([1]; 0.083 h): 166.763±40.110 ng/10^5 cells
- Concentration, AMs ([1]; 0.083 h, converted with reported volume of a single AM (Eq 1)): 1494.295 ± 359.408 µg/mL
- Concentration, AMs ([1]; 0.5 h): 227.198±35.589 ng/10^5 cells
- Concentration, AMs ([1]; 0.5 h, converted with reported volume of a single AM (Eq 1)): 2035.827 ± 318.898 µg/mL
- Concentration, AMs ([1]; 8 h): 11.128±4.099 ng/10^5 cells
- Concentration, AMs ([1]; 30 h): 2.823±2.164 ng/10^5 cells
- intracellular to extracellular concentration ratio (I/E ratio) (Rat AMs NR8383 cells): 133.4±12.5
- AUC(0-inf) ([2]; single oral dose 50 mg/kg): 1440 ± 370 ng·h/mL
- CL/F ([2]; single oral dose 50 mg/kg): 613 mL/min/kg
- MRT ([2]; single oral dose 50 mg/kg): 7.63 ± 1.58 h
- Tmax ([2]; single oral dose 50 mg/kg): 16.8 ± 4.8 min
- AUC(0-t) ([2]; single oral dose 50 mg/kg): 1400 ± 367 ng·h/mL
- Vd/F ([2]; single oral dose 50 mg/kg): 379 ± 100 L/kg
- AUC(0-inf) ([2]; single oral dose 100 mg/kg): 2850 ± 430 ng·h/mL
- CL/F ([2]; single oral dose 100 mg/kg): 610 mL/min/kg
- MRT ([2]; single oral dose 100 mg/kg): 7.7 ± 1.43 h
- Tmax ([2]; single oral dose 100 mg/kg): 26.4 ± 5.4 min
- AUC(0-t) ([2]; single oral dose 100 mg/kg): 2840 ± 425 ng·h/mL
- Vd/F ([2]; single oral dose 100 mg/kg): 336 ± 74 L/kg
- AUC(0-inf) ([2]; single oral dose 200 mg/kg): 5730 ± 664 ng·h/mL
- CL/F ([2]; single oral dose 200 mg/kg): 589 mL/min/kg
- MRT ([2]; single oral dose 200 mg/kg): 10.7 ± 0.85 h
- Tmax ([2]; single oral dose 200 mg/kg): 19.8 min
- AUC(0-t) ([2]; single oral dose 200 mg/kg): 5710 ± 659 ng·h/mL
- Vd/F ([2]; single oral dose 200 mg/kg): 394 ± 58 L/kg
- half-life ([2]; 50 mg/kg, single oral dose 50 mg/kg, read-out: t1/2 (converted)): 434 ± 96.6 min
- half-life ([2]; 100 mg/kg, single oral dose 100 mg/kg, read-out: t1/2 (converted)): 382 ± 55.8 min
- half-life ([2]; 200 mg/kg, oral, all three dosing groups (50, 100, 200 mg/kg), read-out: half-life (converted)): ~420 min
- half-life ([2]; 200 mg/kg, single oral dose 200 mg/kg, read-out: t1/2 (converted)): 463 ± 24.6 min
- Cmax ([2]; single oral dose 50 mg/kg): 367 ± 23 ng/mL
- Cmax ([2]; single oral dose 100 mg/kg): 586 ± 31.2 ng/mL
- Cmax ([2]; single oral dose 200 mg/kg): 1300 ± 194 ng/mL
- AUC relative to that of YH-8 ([2]; following the same oral dose, YH-8 data ref 20): approximately 2.5 fold
- Log10CFU ([3]; 0.5 μg/mL): 6.44±0.02 Log10CFU
- Log10CFU ([3]; 1 μg/mL): 6.40±0.05 Log10CFU
- Log10CFU ([3]; 2 μg/mL): 6.02±0.11 Log10CFU
- bacterial density reduction on intracellular M. tuberculosis [3, 4]: ~70%
- reduction on intracellular M. tuberculosis [3, 4]: 0.45 log10CFU
